According to patent publication US20210275556A1, “Cannabidiol Combination Compositions” (Companion Sciences. LLC, priority 2018, published 2021):

Columns and labels:
[1] = in vivo; conditions: male, Sprague Dawley, rat
Method: (§1) Three different water-soluble CBD oral formulae were tested, F #01 (20%), L #02 (2.5% CBD) and I #03 (20% CBD), and administered at 15 mg/Kg rat.
(§2) The three formulae were tested in combination with 500 mg/Kg Glucosamine (Gln).
(§3) The total administered volume was 10 mL/Kg (CBD+Gln).
(§4) The trial was performed on Sprague Dawley male rat (n=3/group).
(§5) A single dose containing CBD and Gln was provided PO at t=0.
CBD and Gln plasma concentrations were examined 1, 4 and 8 hours following a single administration.

[2] = Gln and CBD concentration in the synovial fluid 8 hours after oral administration; conditions: 8 h after oral administration of 15 mg/Kg CBD + 500 mg/Kg Gln
Method: as §1, §2, §3, §4, §5
Gln concentration in the synovial fluid was examined 8 hours after oral administration.

| SMILES | decrease of Gln plasma concentration from the 4 h point [1] [%] | concentration at 1 h ([1]; po, 500 mg/kg) [ng/mL] | concentration at 4 h ([1]; po, 500 mg/kg) [ng/mL] | concentration at 8 h ([1]; po, 500 mg/kg) [ng/mL] | CBD in the synovial fluid [2] |
| --- | --- | --- | --- | --- | --- |
| N[C@H]1C(O)O[C@H](CO)[C@@H](O)[C@@H]1O (some centres unmarked) [Gln, Glucosamine] | 94.0 | 2.04 | 134 | 8 |  |
| C=C(C)[C@@H]1CCC(C)=C[C@H]1c1c(O)cc(CCCCC)cc1O [CBD, Cannabidiol] |  |  |  |  | No CBD was detected |
